Assay results from US20240415825A1, “COMPOUNDS FOR THE TREATMENT OF MALARIA” (FUNDACIÓ INSTITUT DE BIOENGINYERIA DE CATALUNYA, priority 2021, published 2024).
Where two headings read alike, the source gives them in different places.

Columns and labels:
P. falciparum cultures [1] = assay: ThT analysis of protein aggregation in live P. falciparum cultures; assay type: cell-based, Plasmodium falciparum; conditions: 90 min with 90 nM, equal protein content
Method: After 90 min, 4 h and 30 h, a Percoll purification was done in order to isolate parasitized cells from uninfected RBCs. After Percoll purification, the pellets of late stage parasites and a control non-infected RBC suspension containing the same proportion of cells than the purified cultures were resuspended in 50 μl of lysis buffer (4.5 mg/ml NaCl in water supplemented with EDTA-free protease inhibitor cocktail, PIC, Hoffman-La Roche, Basel, Switzerland; 1 PIC tablet/10 ml water) and incubated overnight, at 4° C. under stirring, with the objective of releasing their inner content. After this time, lysed samples were spun down and the protein content in the supernatant was quantified with the bicinchoninic acid assay (Thermo Fisher Scientific), following the manufacturer's instructions. 30 μg of protein from each supernatant were further diluted with PBS to a final volume of 70 μl and plated on a 96-well black plate in triplicates. ThT fluorescence was measured as described above.

[2] = system: P. falciparum NF54-gexp02-Tom strain gametocytes; assay: microbe, parasite or virus in culture; assay type: cell-based; conditions: Plasmodium falciparum, NF54, 48 h
Method: Cultures of the P. falciparum NF54-gexp02-Tom strain (developed and authenticated by Portugaliza, H. P. et al., 2019 and kindly provided by Prof. Alfred Cortes), were maintained in standard conditions in RPMI medium supplemented with 0.5% Albumax II and 2 mM choline, synchronized in ring stages with sorbitol lysis, and diluted to 2% parasitemia. To trigger sexual conversion, choline was removed from the medium and cultures were maintained in the same conditions for 48 h after synchronization (cycle 0). In the next cycle (cycle 1), parasites were treated with 50 mM N-acetylglucosamine (GlcNac) in order to kill asexual parasites, and maintained in RPMI supplemented with 10% human serum. Medium was refreshed daily and GlcNac was kept during 4 days.
Controls of untreated parasites as well as of parasites treated with a lethal dose of chloroquine were prepared. Gametocytemia was monitored daily by light microscopy until the majority of parasites (˜90%) could be identified as stage V gametocytes. At that point, Giemsa smears of each well were prepared and mature gametocytes were manually counted (10,000 cells were counted for each replica by two investigators blinded to group assignment). […] Afterwards, the culture was treated for 48 h with the drugs and the gametocytemia determined as above.

[3] = system: artemisinin-resistant P. falciparum strains (3D7 and Cam 3.11 with K13 mutations); assay: Growth inhibition, artemisinin-resistant strains; assay type: cell-based; conditions: Plasmodium falciparum, 3D7, read-out: IC50 in artemisinin-resistant strains
Description: P. falciparum parasites of chloroquine-sensitive (3D7 strain) and chloroquine- and artemisinin-resistant strains were processed as described in section 1.1.3 of EXAMPLE 1.
In particular, the P. falciparum resistant strains were the following: (1) strain W2 MRA-157 (BEI Resources, managed by ATCC) which is chloroquine-resistant; (2) strains 3D7 harboring the K13 mutations associated to artemisinin resistance, either M5791 or R561H (both provided by Dr. David A. Fidock and referenced in Stokes, B. H. et al., 2021); (3) Cam 3.11 strain which is chloroquine and sulfadoxine/pyrimethamine-resistant; and (4) Cam 3.11 strain modified to carry K13 mutations associated to artemisinin-resistant strains, either R561H or R539T, therefore being multiresistant strains. All Cam 3.11 strains (3) and (4) were provided by Dr. David A. Fidock and are referenced in Straimer, J. et al., 2015 and Stokes, B. H. et al., 2021.
Then, the required amount of AID-X-2020 was added to each well at different concentrations (0.0001, 0.001, 0.01, 1 and 10 μM) and triplicates.

P. falciparum 3D7 strain = assay: P. falciparum growth inhibition assay (3D7 strain); assay type: cell-based, Plasmodium falciparum; conditions: for IC50: Plasmodium falciparum, 3D7 strain
Method: After the synchronization process, a new culture at 1.5% parasitemia and 2% hematocrit was established and 150 μL aliquots of it were transferred to 96-well plates.
The required amounts of peptides, antimalarial compounds and dyes were added in each well at different concentrations and in triplicates. A positive growth control of untreated parasites and a negative growth control of parasites treated with a lethal dose of chloroquine (1 μM) were also included.
Parasites were grown for 48 h, a complete replication cycle, in standard culturing conditions (5% O2, 5% CO2, and 90% N2 at 37° C.). After the incubation period, 3 μL of culture from each well were mixed with 197 μL of PBS containing 0.1 μM Syto 11 (Thermo Fisher Scientific Inc), to obtain a final concentration of ca. 1-10×10^6 cells/ml.
Parasitemia was assessed by flow cytometry using a LSRFortessa flow cytometer (BD Biosciences, San Jose, CA, USA) set up with the 4 lasers, 20 parameters standard configuration. The single-cell population was selected on a forward-side scatter scattergram.
Growth inhibition was calculated taking as reference values both the growth rate of the untreated culture and the growth rate of the culture treated with chloroquine.

P. falciparum cultures [4] = assay: Combination assay of AID-X-2020 and artemisinin (isobologram, FIC); assay type: cell-based, Plasmodium falciparum; conditions: combined with artemisinin in different ratios
Method: For assays of AID-X-2020 and artemisinin, serial dilutions of both compounds were prepared at different concentration ratios (1:0, 0:1, 1:1, 1:2, 2:1, 1:5 and 5:1).
To assess the synergistic effect of AID-X-2020 and artemisinin, IC50 values for each individual compound in the mixtures were calculated as described above and plotted in an isobologram (“x” value=AID-X-2020 IC50 and “y” value=artemisinin IC50). Fractional inhibitory concentration (FIC) values were calculated by dividing the IC50 of one of the compounds in the mixture by the IC50 of the same compound in the 1:0 or 0:1 ratio mixture.

CCN(CC)c1ccc(/C=C/c2cc[n+](CCCCCCCCCC[n+]3ccc(/C=C/c4ccc(N(CC)CC)cc4)c(C)c3)cc2C)cc1 [AID-X-2020, 1,1′-(decane-1,10-diyl)bis{4-[(E)-4-(diethylamino)styryl]-3-methylpyridin-1-ium} dibromide]
ThT fluorescence of culture extracts (P. falciparum cultures [1]): reduced emission spectrum
IC50 ([2]; read-out: IC50 on early gametocytes): 95 ± 3 nM
IC50 ([2]; read-out: IC50 on mature stage V (late) gametocytes): 103 ± 3 nM
IC50 [3]: 90 to 160 nM
in vitro IC10 (P. falciparum 3D7 strain; P. falciparum cultures): 27 nM
IC50 (P. falciparum 3D7 strain; 48 h, Table 2, read-out: IC50 in 3D7 strain (μM) ± SEM): 0.09 ± 0.02 µM
IC50 (P. falciparum 3D7 strain; Example 8, read-out: IC50 in 3D7 strain): 0.09 µM
IC50 (P. falciparum 3D7 strain; read-out: IC50 in P. falciparum in vitro cultures): 0.09 ± 0.002 µM
ZFIC values (P. falciparum cultures [4]): higher than 1.5
